Results from patent US12545668B2, “Cyclic amine derivative as agent for promoting advillin function, and novel cyclic amine derivative and pharmaceutical use thereof” (Toray Industries, Inc., priority 2018, dated 2026).

What was measured:
[1] = Specific binding of 3H-labeled compound to membrane fraction prepared from rat dorsal root ganglion; conditions: 3H-labeled compound of Example 7, 37° C., 1 hour; unlabeled compound for non-specific binding; FIG. 2
Method: (§1) A binding property of a ^3H-labeled cyclic amine derivative (I) to each of membrane fractions prepared from various tissues of a rat was evaluated, and thus, a tissue containing a molecular target of the cyclic amine derivative (I) was clarified.
(§2) As the cyclic amine derivative (I), the compound of Example 7 was used.
(§3) Male SD rats (manufactured by Charles River Laboratories Japan, Inc.) of 7 weeks old were used. Rats were anesthetized with isoflurane, and euthanized by exsanguination from the abdominal aorta using a syringe having an inner wall treated with a heparin sodium injection (manufactured by AY Pharmaceuticals Co., Ltd.). […]
(§4) A homogenate sample of each tissue thus collected was prepared, using a homogenizer, by adding a homogenize buffer (sucrose (1 M), Tris-HCl (0.5 M), and 1× protease inhibitor cocktail (manufactured by Sigma Aldrich), pH 7.6) to the collected tissue. […] The resultant supernatant was ultracentrifuged at 100,000×g at 4° C. for 60 minutes, and the thus obtained precipitate was suspended in Krebs-Ringer bicarbonate buffer (manufactured by Sigma Aldrich) to quantitatively determine the amount of protein using a BCA protein assay kit (manufactured by Thermo Fisher Scientific K.K.). […]

[2] = Specific binding of 3H-labeled compound to membrane fraction prepared from rat spinal cord; conditions: 3H-labeled compound of Example 7, 37° C., 1 hour; relative to dorsal root ganglion
Method: as §1, §2, §3, §4

[3] = Specific binding of 3H-labeled compound to membrane fractions prepared from the other rat tissues; conditions: 3H-labeled compound of Example 7, 37° C., 1 hour; relative to dorsal root ganglion
Method: as §1, §2, §3, §4

CN(C)C1CCN(C(=O)C[C@H](O)c2nccn2C)CC1 [Example 7, (S)-1-(4-(dimethylamino)piperidin-1-yl)-3-hydroxy-3-(1-methyl-1H-imidazol-2-yl)propan-1-one]
specific binding to the membrane fraction prepared from the dorsal root ganglion [1]: significant | specific binding to the membrane fraction prepared from the spinal cord, as % of the specific binding to the dorsal root ganglion membrane fraction [2]: 23% | specific bindings to the membrane fractions prepared from the other tissues including the brain, as % of the specific binding to the dorsal root ganglion membrane fraction [3]: less than 1%
